According to patent publication US20050009840A1 (SUGEN, INC., priority 2003, published 2005):

Molecular target: T1, Met kinase domain (GST fusion protein) (Homo sapiens, UniProt P08581)
T1 construct: Purified GST fusion protein containing the Met kinase domain
Assay: Met transphosphorylation assay (ELISA, poly(glu-tyr) substrate);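 also: Cell-free ELISA with plate-bound poly(Glu:Tyr 4:1) phosphorylated by GST-fused Met kinase domain plus ATP and Mn2+, phosphotyrosine detected by anti-phosphotyrosine antibody with HRP and ABTS read-out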
Format: biochemical
Conditions: read-out: Met IC50

T1 sequence (P08581 1078-1345 limits assumed): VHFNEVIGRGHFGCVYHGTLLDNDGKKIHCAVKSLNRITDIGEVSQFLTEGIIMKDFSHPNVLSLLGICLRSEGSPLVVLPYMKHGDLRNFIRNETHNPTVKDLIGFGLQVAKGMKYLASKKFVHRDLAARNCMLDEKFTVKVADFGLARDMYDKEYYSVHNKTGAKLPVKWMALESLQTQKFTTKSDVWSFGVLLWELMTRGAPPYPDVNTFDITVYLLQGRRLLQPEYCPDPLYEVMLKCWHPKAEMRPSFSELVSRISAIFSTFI

Row | Compound | IC50 [nM]
1 | CC(Oc1nc(-c2ccc(NS(=O)(=O)CCN3CCN(C(=O)CO)CC3)cc2)cnc1N)c1c(F)ccc(F)c1Cl (stereo not drawn) [II-120, 2-[4-(2-Hydroxy-acetyl)-piperazin-1-yl]-ethanesulfonic acid (4-{5-amino-6-[1-(2-chloro-3,6-difluoro-phenyl)-ethoxy]-pyrazin-2-yl}-phenyl)-amide] | 190
2 | Nc1ncc(-c2cccc(C(=O)N3CCC(N4CCCC4)CC3)c2)nc1OCc1cccc(F)c1C(F)(F)F [II-122, {3-[5-Amino-6-(3-fluoro-2-trifluoromethyl-benzyloxy):pyrazin-2-yl]-phenyl)(4-pyrrolidin-1-yl-piperidin-1-yl)-methanone] | 190
3 | CN1CCN(C(=O)c2cccc(-c3cnc(N)c(OCc4cccc(F)c4C(F)(F)F)n3)c2)CC1 [II-124, {3-[5-Amino-6-(3-fluoro-2-trifluoromethyl-benzylloxy)-pyrazin-2-yl]-phenyl}-(4-methyl-piperazin-1-yl)-methanone] | 230
4 | Nc1ncc(-c2cccc(C(=O)NCCCN3CCCC3)c2)nc1OCc1cccc(F)c1C(F)(F)F [II-125, 3-[5-Amino-6-(3-fluoro-2-trifluoromethyl-benzyloxy)-pyrazin-2-yl]-N-(3-pyrrolidin-1-yl-propyl)-benzamide] | 220
5 | CC(=O)N1CCN(CCNC(=O)c2cccc(-c3cnc(N)c(OCc4cccc(F)c4C(F)(F)F)n3)c2)CC1 [II-126, N-[2-(4-Acetyl-piperazin-1-yl)-ethyl]-3-[5-amino-6-(3-fluoro-2-trifluoromethyl-benzyloxy)-pyrazin-2-yl]-benzamide] | 650
6 | CC(Oc1nc(-c2cccc(C(=O)NCCN3CCOCC3)c2)cnc1N)c1c(Cl)ccc(F)c1Cl (stereo not drawn) [II-134, 3-{5-Amino-6-[1-(2,6-dichloro-3-fluoro-phenyl)-ethoxy]-pyrazin-2-yl}-N-(2-morpholin-4-yl-ethyl)-benzamide] | 210
7 | CC(Oc1nc(-c2cccc(C(=O)NCCCN3CCOCC3)c2)cnc1N)c1c(Cl)ccc(F)c1Cl (stereo not drawn) [II-135, 3-{5-Amino-6-[1-(2,6-dichloro-3-fluoro-phenyl)-ethoxy]-pyrazin-2-yl}-N-(3-morpholin-4-yl-propyl)-benzamide] | 260
8 | CC(Oc1nc(-c2cccc(C(=O)NC[C@H](O)CN3CCOCC3)c2)cnc1N)c1c(Cl)ccc(F)c1Cl (stereo partly drawn) [II-137, 3-{5-Amino-6-[1-(2,6-dichloro-3-fluoro-phenyl)-ethoxy]-pyrazin-2-yl}-N-((S)-2-hydroxy-3-morpholin-4-yl-propyl)-benzamide] | 300
9 | CCN(CC)CCS(=O)(=O)Nc1ccc(-c2cnc(N)c(OC(C)c3c(Cl)ccc(F)c3Cl)n2)cc1 (stereo not drawn) [II-140, 2-Diethylamino-ethanesulfonic acid (4-{5-amino-6-[1-(2,6-dichloro-3-fluoro-phenyl)-ethoxy]-pyrazin-2-yl}-phenyl)-amide] | 350
10 | CC(Oc1nc(-c2ccc(NS(=O)(=O)CCN3CCC(O)CC3)cc2)cnc1N)c1c(Cl)ccc(F)c1Cl (stereo not drawn) [II-141, 2-(4-Hydroxy-piperidin-1-yl)-ethanesulfonic acid (4-{5-amino-6-[1-(2,6-dichloro-3-fluoro-phenyl)-ethoxy]-pyrazin-2-yl}-phenyl)-amide] | 210
11 | CC(Oc1nc(-c2ccc(NS(=O)(=O)CCN(C)C)cc2)cnc1N)c1c(Cl)ccc(F)c1Cl (stereo not drawn) [II-142, 2-Dimethylamino-ethanesulfonic acid (4-{5-amino-6-[1-(2,6-dichloro-3-fluoro-phenyl)-ethoxy]-pyrazin-2-yl}-phenyl)-amide] | 220
12 | CC(Oc1nc(-c2ccc(NS(=O)(=O)CCN3CC[C@@H](O)C3)cc2)cnc1N)c1c(Cl)ccc(F)c1Cl (stereo partly drawn) [II-143, 2-((R)-3-Hydroxy-pyrrolidin-1-yl)-ethanesulfonic acid (4-{5-amino-6-[1-(2,6-dichloro-3-fluoro-phenyl)-ethoxy]-pyrazin-2-yl}-phenyl)-amide] | 190
13 | CC(Oc1nc(-c2ccc(NS(=O)(=O)CCN3CCCC3)cc2)cnc1N)c1c(Cl)ccc(F)c1Cl (stereo not drawn) [II-144, 2-Pyrrolidin-1-ylethanesulfonic acid (4-{5-amino-6-[1-(2,6-dichloro-3-fluoro-phenyl)-ethoxy]-pyrazin-2-yl}-phenyl)-amide] | 360
14 | CC(Oc1nc(-c2ccc(C(=O)O)cc2)cnc1N)c1c(Cl)ccc(F)c1Cl (stereo not drawn) [II-145, 4-{5-Amino-6-[1-(2,6-dichloro-3-fluoro-phenyl)-ethoxy)-pyrazin-2-yl)benzoic acid] | 1560
15 | CC(Oc1nc(-c2ccc(C(=O)N3CCC[C@H]3CN3CCCC3)cc2)cnc1N)c1c(Cl)ccc(F)c1Cl (stereo partly drawn) [II-151, (4-{5-Amino-6-[1-(2,6-dichloro-3-fluoro-phenyl)-ethoxy]-pyrazin-2-yl}-phenyl)-((S)-2-pyrrolidin-1-ylmethyl-pyrrolidin-1-yl)-methanone] | 180

The next molecules have a lower IC50 than those just listed; values first:

Row | IC50 [nM] | Compound
16 | 47 | Nc1ncc(-c2ccc(C(=O)N3CCC(N4CCCC4)CC3)cc2)nc1OCc1cccc(F)c1C(F)(F)F [II-127, {4-[5-Amino-6-(3-fluoro-2-trifluoromethyl-benzyloxy)-pyrazin-2-yl]-phenyl}-(4-pyrrolidin-1-yl-piperidin-1-yl)-methanone]
17 | 150 | CN1CCN(C(=O)c2ccc(-c3cnc(N)c(OCc4cccc(F)c4C(F)(F)F)n3)cc2)CC1 [II-128, {4-[5-Amino-6-(3-fluoro-2-trifluoromethyl-benzyloxy)-pyrazin-2-yl]-phenyl}-(4-methyl-piperazin-1-yl)-methanone]
18 | 52 | Nc1ncc(-c2ccc(C(=O)N3CCC[C@H]3CN3CCCC3)cc2)nc1OCc1cccc(F)c1C(F)(F)F [II-129, {4-[5-Amino-6-(3-fluoro-2-trifluoromethyl-benzyloxy)-pyrazin-2-yl]-phenyl}-((S)-2-pyrrolidin-1-ylmethyl-pyrrolidin-1-yl)-methanone]
19 | 170 | CC(Oc1nc(-c2cccc(C(=O)N3CCN(C)CC3)c2)cnc1N)c1c(Cl)ccc(F)c1Cl (stereo not drawn) [II-130, (3-{5-Amino-6-[1-(2,6-dichloro-3-fluoro-phenyl)-ethoxy]-pyrazin-2-yl}-phenyl)-(4-methyl-piperazin-1-yl)-methanone]
20 | 120 | CC(Oc1nc(-c2cccc(C(=O)N3C[C@@H](C)N[C@@H](C)C3)c2)cnc1N)c1c(Cl)ccc(F)c1Cl (stereo partly drawn) [II-131, (3-{5-Amino-6-[1-(2,6-dichloro-3-fluoro-phenyl)-ethoxy]-pyrazin-2-yl}-phenyl)-((3R,5S)-3,5-dimethyl-piperazin-1-yl)-methanone]
21 | 130 | CC(Oc1nc(-c2cccc(C(=O)NC3CCN(C)CC3)c2)cnc1N)c1c(Cl)ccc(F)c1Cl (stereo not drawn) [II-132, 3-{5-Amino-6-[1-(2,6-dichloro-3-fluoro-phenyl)-ethoxy]-pyrazin-2-yl}-N-(1-methyl-piperidin-4-yl)-benzamide]
22 | 170 | CC(Oc1nc(-c2cccc(C(=O)NCCN3CCCC3)c2)cnc1N)c1c(Cl)ccc(F)c1Cl (stereo not drawn) [II-133, 3-{5-Amino-6-[1-(2,6-dichloro-3-fluoro-phenyl)-ethoxy]-pyrazin-2-yl}-N-(2-pyrrolidin-1-yl-ethyl)-benzamide]
23 | 150 | CC(Oc1nc(-c2cccc(C(=O)N3CCC(NC4CC4)CC3)c2)cnc1N)c1c(Cl)ccc(F)c1Cl (stereo not drawn) [II-136, (3-{5-Amino-6-[1-(2,6-dichloro-3-fluoro-phenyl)-ethoxy]-pyrazin-2-yl}-phenyl)-(4-cyclopropylamino-piperidin-1-yl)-methanone]
24 | 130 | CC(Oc1nc(-c2cccc(C(=O)NC[C@@H](O)CN3CCCC3)c2)cnc1N)c1c(Cl)ccc(F)c1Cl (stereo partly drawn) [II-138, 3-{5-Amino-6-[1-(2,6-dichloro-3-fluoro-phenyl)-ethoxy]-pyrazin-2-yl}-N-((R)-2-hydroxy-3-pyrrolidin-1-yl-propyl)-benzamide]
25 | 71 | CC(Oc1cc(-c2cccc(C(=O)N3CCC(N4CCCC4)CC3)c2)cnc1N)c1c(Cl)ccc(F)c1Cl (stereo not drawn) [II-139, (3-{6-Amino-5-[1-(2,6-dichloro-3-fluoro-phenyl)-ethoxy]-pyridin-3-yl}-phenyl)-(4-pyrrolidin-1-yl-piperidin-1-yl)-methanone]
26 | 150 | CC(Oc1nc(-c2ccc(C(=O)NC[C@@H](O)CN3CCCC3)cc2)cnc1N)c1c(Cl)ccc(F)c1Cl (stereo partly drawn) [II-146, 4-{5-Amino-6-[1-(2,6-dichloro-3-fluoro-phenyl)-ethoxy]-pyrazin-2-yl}-N-((R)-2-hydroxy-3-pyrrolidin-1-yl-propyl)-benzamide]
27 | 130 | CC(Oc1nc(-c2ccc(C(=O)N3CCC(NC4CC4)CC3)cc2)cnc1N)c1c(Cl)ccc(F)c1Cl (stereo not drawn) [II-147, (4-{5-Amino-6-[1-(2,6-dichloro-3-fluoro-phenyl)-ethoxy]-pyrazin-2-yl}-phenyl)-(4-cyclopropylamino-piperidin-1-yl)-methanone]
28 | 120 | CC(Oc1nc(-c2ccc(C(=O)NC[C@H](O)CN3CCCC3)cc2)cnc1N)c1c(Cl)ccc(F)c1Cl (stereo partly drawn) [II-148]
29 | 130 | CC(Oc1nc(-c2ccc(C(=O)NC[C@@H](O)CN3CCOCC3)cc2)cnc1N)c1c(Cl)ccc(F)c1Cl (stereo partly drawn) [II-149, 4-{5-Amino-6-[1-(2,6-dichloro-3-fluoro-phenyl)-ethoxy]-pyrazin-2-yl}-N-((R)-2-hydroxy-3-morpholin-4-yl-propyl)-benzamide]
30 | 68 | CC(Oc1nc(-c2ccc(C(=O)NC3CCN(C)CC3)cc2)cnc1N)c1c(Cl)ccc(F)c1Cl (stereo not drawn) [II-150, 4-{5-Amino-6-[1-(2,6-dichloro-3-fluoro-phenyl)-ethoxy]-pyrazin-2-yl}-N-(1-methyl-piperidin-4-yl)-benzamide]
31 | 110 | CC(Oc1nc(-c2ccc(C(=O)N3CCC(N4CCCC4)CC3)cc2)cnc1N)c1c(Cl)ccc(F)c1Cl (stereo not drawn) [II-152, (4-{5-Amino-6-[1-(2,6-dichloro-3-fluoro-phenyl)-ethoxy]-pyrazin-2-yl}-phenyl)-(4-pyrrolidin-1-yl-piperidin-1-yl)-methanone]
32 | 102 | CC(Oc1nc(-c2ccc(C(=O)NCCN3CCOCC3)cc2)cnc1N)c1c(Cl)ccc(F)c1Cl (stereo not drawn) [II-153, 4-{5-Amino-6-[1-(2,6-dichloro-3-fluoro-phenyl)-ethoxy]-pyrazin-2-yl}-N-(2-morpholin-4-yl-ethyl)-benzamide]
33 | 160 | CC(Oc1nc(-c2ccc(C(=O)N3CCN(C)CC3)cc2)cnc1N)c1c(Cl)ccc(F)c1Cl (stereo not drawn) [II-154, (4-{5-Amino-6-[1-(2,6-dichloro-3-fluoro-phenyl)-ethoxy]-pyrazin-2-yl}-phenyl)-(4-methyl-piperazin-1-yl)-methanone]
